From article PMC11096237, “Utilizing a structure-based virtual screening approach to discover potential LSD1 inhibitors” (Journal of Cancer Research and Clinical Oncology, 2024)
pIC50: −log10 of the molar value.

Biological target: T1, LSD1 (Homo sapiens, UniProt O60341)
T1 construct: gene KDM1A
Test: Amplex Red/HRP-coupled fluorescence demethylase assay with purified recombinant LSD1 and H3K4me2
Format: biochemical
Description: Amplex Red/HRP-coupled fluorescence demethylase assay with purified recombinant LSD1 and H3K4me2 on LSD1 | […]

O=C(CNC(=O)Cc1ccccc1)NCC(=O)OCC(=O)c1ccc(OCc2ccccc2)cc1 [ZINC10039815]
pIC50: 7.00
